Measurements taken from patent publication US8835631B2, “Therapeutic agent for cerebral infarction” (Mitsubishi Tanabe Pharma Corporation, priority 2007, dated 2014).
Marks after values point to notes of the source that are not given here.

Legend:
TNF-α [1] = assay: Intracerebral TNF-α production in rat middle cerebral artery occlusion-reperfusion model; assay type: in vivo, male Wistar rats; details: 10 mg/kg orally 30 min after occlusion; brain isolated 12 hr after occlusion; ELISA; FIG. 1
Procedure: (§1) The middle cerebral artery of male Wistar rats (Japan Laboratory animals Inc.) was obstructed with suture (silicon-coated nylon thread), and test compound A (10 mg/kg) dissolved in saline was intravenously administered in 30 min after occlusion, and middle cerebral artery was reperfused in 60 min after administration. In only the rats used for TNF-α measurement, test compound A was administered orally. The brain was isolated at 12 hr after the occlusion (see Koizumi, J. et al., Jpn. J. Stroke, 8, 1-8, 1986). The brain tissue was homogenized, the centrifuged supernatant was collected and cytokine and chemokine were measured by ELISA. Intracerebral TNF-α, IL-1β and IL-6 were measured using an Immunoassay Kit (BIOSOURCE) according to the manufactures' protocol. MCP-1 was measured using an MCP-1 Instant ELISA (Bener MedSystems) according to the manufactures' protocol.

IL-1β = assay: Intracerebral IL-1β production in rat middle cerebral artery occlusion-reperfusion model; assay type: in vivo, male Wistar rats; details: 10 mg/kg intravenously 30 min after occlusion; brain isolated 12 hr after occlusion; ELISA; FIG. 2
Procedure: as §1

IL-6 [2] = assay: Intracerebral IL-6 production in rat middle cerebral artery occlusion-reperfusion model; assay type: in vivo, male Wistar rats; details: 10 mg/kg intravenously 30 min after occlusion; brain isolated 12 hr after occlusion; ELISA; FIG. 3
Procedure: as §1

MCP-1 [3] = assay: Intracerebral MCP-1 production in rat middle cerebral artery occlusion-reperfusion model; assay type: in vivo, male Wistar rats; details: 10 mg/kg intravenously 30 min after occlusion; brain isolated 12 hr after occlusion; ELISA; FIG. 4
Procedure: as §1

[4] = tested on: monkey middle cerebral artery permanent occlusion model; assay: Brain injury volume and neurological deficit in monkey middle cerebral artery permanent occlusion model; assay type: in vivo, Macaca fascicularis; details: for spread of the cerebral infarction region (brain injury volume, MRI FLAIR): 5 mg/kg orally twice a day, FIG. 5
Procedure: In monkey middle cerebral artery permanent occlusion model, the brain injury volume was measured by MR^1 (FLAIR method) one day and seven days after occlusion. Test compound A (5 mg/kg) dissolved in 0.5% tragacanth was repeatedly administered orally twice a day for 14 days. As for neurological score, the neurological function was evaluated by scoring the consciousness, perception, motility and muscular commands.
The middle cerebral artery permanent occlusion was conducted according to the method of Furuichi et al. (Furuichi, Y et al., J. Cereb. Blood Flow Metab., 23, 1183-1194, 2003), which is specifically as follows. Macaca fascicularis fasted in advance for 12 hr or longer was anesthetized by intramuscular administration of ketamine hydrochloride (10 mg/kg), anesthetized by intravenous administration of pentobarbital sodium (25 mg/kg) and fixed on an operating table. About 5 mm holes were made near foramen ovale and orbital fissure with a dental drill, dura mater and arachnoid mater were incised, and the middle cerebral artery trunk near the internal carotid artery bifurcation area was exposed. The middle cerebral artery trunk near the internal carotid artery bifurcation area was obstructed by electric coagulation to form cerebral infarction.
Test compound A was orally administered within 1 hr and 6 hr after middle cerebral artery occlusion and within 30 min after feeding in the morning and evening (twice a day) from the next day for 14 days.

TNF-α [5] = assay: TNF-α production in LPS-administered mouse; assay type: in vivo, male BALB/c mouse
Procedure: (§2) LPS (lipopolysaccharide, derived from E. coli 0111:B4, Sigma, 500 μg/kg) was intraperitoneally administered to male BALB/c mouse (Charles River Laboratories Japan). After 90 min after LPS administration, the blood was taken under anesthesia, and centrifuged to collect plasma. TNF-α was measured using an Immunoassay Kit (R&D Systems) and IL-10, MCP-1 and IL-6 were measured using an Immunoassay Kit (BIOSOURCE). Test compound A, the compound synthesized in Example 3 (test compound B) and the compound synthesized in Example 7 (test compound C) were dissolved in saline, and the mixture was orally administered at 10 mg/kg 30 min before LPS administration. As shown in the Tables, the effect of each test compound on respective […] cytokines was calculated as the ratio of each cytokine concentration in the blood of the group administered with each test compound to each cytokine concentration in the blood of the group free of administration of each test compound.

IL-10 = IL-10 production in LPS-administered mouse; assay type: in vivo, male BALB/c mouse
Procedure: as §2

IL-6 [6] = assay: IL-6 production in LPS-administered mouse; assay type: in vivo, male BALB/c mouse; details: for IL-6 production (%): 10 mg/kg orally 30 min before LPS 500 μg/kg i.p., plasma 90 min after LPS, ratio to group without test compound
Procedure: as §2

MCP-1 [7] = assay: MCP-1 production in LPS-administered mouse; assay type: in vivo, male BALB/c mouse; details: for MCP-1 production (%): 10 mg/kg orally 30 min before LPS 500 μg/kg i.p., plasma 90 min after LPS, ratio to group without test compound
Procedure: as §2

[8] = Evaluation of bioavailability in rat; assay type: in vivo, male SD(IGS) rats
Procedure: Test compound A, test compound B and test compound C were each dissolved in 0.5% aqueous HPMC (hydroxypropyl methylcellulose) solution in the case of oral administration, or in saline in the case of intravenous administration, and they were orally or intravenously administered to male SD(IGS) rats (Charles River Laboratories Japan) by 3 mg/kg. The concentration of unchanged drug in the plasma of each rat was measured, and bioavailability (F(%)) was calculated (F (%)=(AUC0-∞,p.o./AUC0-∞,i.v.,mean)×(Dosei.v./Dosep.o.)×100). The test compound was administered by gavage using an oral gavage needle (p.o.), or administered in the tail vein (i.v.). The blood samples were collected at 15 and 30 min, 1, 2, 4, 6, 8 and 24 hr after administration in the case of oral administration, and 5 and 30 min, 1, 2, 4, 6, 8 and 24 hr after administration in the case of intravenous administration.
The results are shown in Tables 4 (test compound A), 5 (test compound B) and 6 (test compound C). The Cmax values for i.v. in Tables 4, 5 and 6 show plasma concentration at 5 min after administration.

[9] = Evaluation of intracerebral transitivity in rat; assay type: in vivo, SD(IGS) rats; details: for Kp value (ratio of plasma concentration and intracerebral concentration): 30 mg/kg orally
Procedure: The test compound A dissolved in 0.5% aqueous HPMC solution was orally administered at 30 mg/kg, and test compound B and test compound C dissolved in 0.5% aqueous HPMC solution were each orally administered at 3 mg/kg to SD(IGS) rats (Charles River Laboratories Japan). At 1 hr and 4 hr after the administration of the test compound, blood samples were collected, and the brain (cerebral•cerebellum) was isolated. The plasma concentration and intracerebral concentration of each test compound were measured, and the ratio (Kp value) thereof was calculated, based on which the intracerebral transitivity was evaluated.

[10] = 10 mg/kg orally 30 min before LPS
[11] = Table 1, 10 mg/kg orally 30 min before LPS 500 μg/kg i.p., plasma 90 min after LPS, ratio to group without test compound
[12] = 3 mg/kg i.v., plasma, Mean + SD
[13] = 3 mg/kg p.o., plasma, Mean + SD

Compound: CC(=O)NC1(c2ccc(CN3CCN(c4ncccn4)CC3)cc2)CC1.Cl [test compound A, N-(1-(4-((4-(pyrimidin-2-yl)piperazin-1-yl)methyl)phenyl)cyclopropyl)acetamide•hydrochloride]
- intracerebral TNF-α concentration increased by transient cerebral ischemia (TNF-α [1]): suppressed
- intracerebral IL-1β concentration increased by transient cerebral ischemia (IL-1β): suppressed
- intracerebral IL-6 concentration increased by transient cerebral ischemia (IL-6 [2]): suppressed
- intracerebral MCP-1 concentration increased by transient cerebral ischemia (MCP-1 [3]): suppressed
- neurological deficit (neurological function score) ([4]; 5 mg/kg orally twice a day for 14 days, FIG. 6): neurological deficit-ameliorating effect
- spread of the cerebral infarction region (brain injury volume, MRI FLAIR) ([4]; 1 day after occlusion): suppressive action
- spread of the cerebral infarction region (brain injury volume, MRI FLAIR) ([4]; 7 days after occlusion): suppressive action
- TNF-α production in LPS model mouse (in words) (TNF-α [5]; [10]): suppressed
- TNF-α production (%) (TNF-α [5]; [11]): 43.5%
- IL-10 in LPS model mouse (in words) (IL-10; [10]): increased
- IL-10 production (%) (IL-10; [11]): 397.1%
- IL-6 production in LPS model mouse (in words) (IL-6 [6]; [10]): suppressed
- IL-6 production (%) (IL-6 [6]; Table 2): 74.4%
- IL-6 production (%) (IL-6 [6]; Table 3): 78.4%
- MCP-1 production in LPS model mouse (in words) (MCP-1 [7]; [10]): suppressed
- MCP-1 production (%) (MCP-1 [7]; Table 2): 61.7%
- MCP-1 production (%) (MCP-1 [7]; Table 3): 72.2%
- AUC0-24 h [8, 12]: 3850 ± 78.4 ngh/mL
- AUC0-∞ [8, 12]: 3841.3 ± 77.4 ngh/mL
- Cmax (C5 min, plasma concentration at 5 min after administration) [8, 12]: 2219.9 ± 103.8^2) ng/mL
- F (bioavailability) ([8]; 3 mg/kg p.o. vs 3 mg/kg i.v., F = (AUC0-∞,p.o./AUC0-∞,i.v.,mean) × (Dosei.v./Dosep.o.) × 100): 104.3%
- AUC0-24 h [8, 13]: 4032.9 ± 501.8 ngh/mL
- AUC0-∞ [8, 13]: 4008.2 ± 491.5 ngh/mL
- Cmax [8, 13]: 1.4597 µg/mL
- Kp value (ratio of plasma concentration and intracerebral concentration) ([9]; 1 hr after administration): 0.5
- Kp value (ratio of plasma concentration and intracerebral concentration) ([9]; 4 hr after administration): 0.5
- intracerebral transitivity (in words) ([9]; orally, test compound A 30 mg/kg, test compounds B and C 3 mg/kg): intracerebrally transferred
